Assay results reported in US9211326B2, “Method of enhancing the proliferative phase of a primary T cell response” (Tampa Bay Research Institute, priority 2013, dated 2015).
“Also recorded” adds a separate entry of the source.

What was measured:
Vβ8+ T cells [1] = tested on: Vβ8+ T cells; parameters: species or system Balb/c mice; conditions: mouse, in vivo
Bcl-2 [2] = tested on: Bcl-2; parameters: species or system Balb/c mice; conditions: mouse, in vivo
IL-2 = tested on: IL-2; parameters: species or system Balb/c mice; conditions: mouse, in vivo
IL-12p70 = tested on: IL-12p70; parameters: species or system Balb/c mice; conditions: mouse, in vivo
Bax mRNA = tested on: Bax mRNA; parameters: species or system Balb/c mice; conditions: mouse, in vivo
IFNg = tested on: IFNg; parameters: species or system Balb/c mice; conditions: mouse, in vivo
Bcl-2 mRNA = test: qPCR gene expression in lymph node cells: Bcl-2; parameters: species or system Balb/c mice; conditions: mouse, in vivo
Vβ8+ T cells [3] = tested on: Vβ8+ T cells; parameters: species or system Balb/c mice; conditions: mouse, in vivo; remark: listed apart in the source
Bcl-xL mRNA = test: qPCR gene expression in lymph node cells: Bcl-xL; parameters: species or system Balb/c mice; conditions: mouse, in vivo
Bcl-2 [4] = conditions: cited from earlier work

## Staphylococcal enterotoxin B [SEB]
Vβ8+ T cells [1]
  numbers of CD3+/CD8+/Vβ8+ T cells: remained elevated
Bcl-2 [2]
  intracellular Bcl-2 protein per Vβ8+ T cell: equally reduced amounts
IL-2
  serum IL-2 level: significant increase
IL-12p70
  serum IL-12p70 level: significant increase
Bax mRNA
  Bax mRNA level in lymph nodes: did not appear to be significantly affected
IFNg
  serum IFNg level: significant increase
Bcl-2 mRNA
  Bcl-2 mRNA level in lymph nodes: suppressed; also recorded: reduction
Vβ8+ T cells [3]
  percentage of Annexin V positive Vβ8+ T cells: significantly enhanced
Bcl-xL mRNA
  Bcl-xL mRNA level in lymph nodes: suppressed; also recorded: reduced

## O=C(O)c1ccc(/C2=C3\C=CC(=N3)/C(c3ccc(C(=O)O)cc3)=c3/cc/c4[n]3[Mn]([Cl])[n]3c2ccc3/C(c2ccc(C(=O)O)cc2)=C2/C=CC(=N2)\C=4c2ccc(C(=O)O)cc2)cc1 [MnTBAP]
Bcl-2 [4]
  ROS induced decline in Bcl-2: reversed
